From patent US20250171438A1 (Agios Pharmaceuticals, Inc., priority 2022, published 2025)

Molecular target: T1, human PAH with the R408W mutation (Homo sapiens, UniProt P00439, R408W)
T1 construct: expressed in transfected cells
T1 sequence (P00439 1-452 R408W): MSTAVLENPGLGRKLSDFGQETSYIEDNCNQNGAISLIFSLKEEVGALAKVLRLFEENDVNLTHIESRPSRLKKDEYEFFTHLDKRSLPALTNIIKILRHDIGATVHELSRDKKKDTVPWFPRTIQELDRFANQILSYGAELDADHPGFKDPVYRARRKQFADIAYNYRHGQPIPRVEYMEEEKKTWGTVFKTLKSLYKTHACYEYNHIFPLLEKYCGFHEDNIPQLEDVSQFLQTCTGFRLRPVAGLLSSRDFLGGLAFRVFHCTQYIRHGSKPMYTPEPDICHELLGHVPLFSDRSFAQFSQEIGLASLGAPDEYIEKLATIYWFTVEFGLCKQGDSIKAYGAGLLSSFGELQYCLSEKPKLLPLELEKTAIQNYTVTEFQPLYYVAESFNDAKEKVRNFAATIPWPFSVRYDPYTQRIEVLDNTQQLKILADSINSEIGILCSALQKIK
Experiment: Cell Based Phenylalanine Flux Assay
Conditions: A375 cells expressing human R408W PAH; 24 hrs compound incubation; 13C-Tyrosine by LC-MS; average where tested multiple times; read-out: AC50

CC(C)(F)c1ncc(C(=O)N2CCc3[nH]cnc3[C@H]2c2nc3c(F)cccc3s2)s1 [Example 1486, (S)-(4-(4-fluorobenzo[d]thiazol-2-yl)-6,7-dihydro-1H-imidazo[4,5-c]pyridin-5(4H)-yl)(2-(2-fluoropropan-2-yl)thiazol-5-yl)methanone] and CC(F)(F)c1ncc(C(=O)N2CCc3[nH]cnc3[C@H]2c2nc3c(F)cccc3s2)s1 [Example 1513] cannot be ordered by AC50: less than 500 nM for the first, less than 500 nM for the second.

First: CC(C)(F)c1ncc(C(=O)N2CCc3[nH]cnc3[C@H]2c2nc3c(F)cccc3s2)o1 [Example 1487, (S)-(4-(4-fluorobenzo[d]thiazol-2-yl)-6,7-dihydro-1H-imidazo[4,5-c]pyridin-5(4H)-yl)(2-(2-fluoropropan-2-yl)oxazol-5-yl)methanone]
Second: CC(C)(F)c1ncc(C(=O)N2CCc3[nH]cnc3[C@@H]2c2nc3c(F)cccc3s2)o1 [Example 1488, (R)-(4-(4-fluorobenzo[d]thiazol-2-yl)-6,7-dihydro-1H-imidazo[4,5-c]pyridin-5(4H)-yl)(2-(2-fluoropropan-2-yl)oxazol-5-yl)methanone]
The AC50 of the first is lower: less than 500 nM for the first, 500 to 1000 nM for the second.

Compared with CC(C)(F)c1ccc2c(C(=O)N3CCc4[nH]cnc4[C@H]3c3nc4c(F)cccc4s3)cnn2c1 [Example 1489, (S)-(4-(4-fluorobenzo[d]thiazol-2-yl)-6,7-dihydro-1H-imidazo[4,5-c]pyridin-5(4H)-yl)(6-(2-fluoropropan-2-yl)pyrazolo[1,5-a]pyridin-3-yl)methanone], CC(C)(F)c1ccc2c(C(=O)N3CCc4[nH]cnc4[C@@H]3c3nc4c(F)cccc4s3)cnn2c1 [Example 1490, (R)-(4-(4-fluorobenzo[d]thiazol-2-yl)-6,7-dihydro-1H-imidazo[4,5-c]pyridin-5(4H)-yl)(6-(2-fluoropropan-2-yl)pyrazolo[1,5-a]pyridin-3-yl)methanone] is higher in AC50: 500 to 1000 nM for the first, 1000 to 5000 nM for the second.

Compared with Fc1ccc(-c2nnc(N3CCc4[nH]cnc4[C@H]3c3nc4ccccc4s3)o2)cc1 [Example 1491], Fc1ccc(-c2nnc(N3CCc4[nH]cnc4[C@@H]3c3nc4ccccc4s3)o2)cc1 [Example 1492, (R)-2-(4-(benzo[d]thiazol-2-yl)-6,7-dihydro-1H-imidazo[4,5-c]pyridin-5(4H)-yl)-5-(4-fluorophenyl)-1,3,4-oxadiazole] is higher in AC50: less than 500 nM for the first, 500 to 1000 nM for the second.

O=C(c1ocnc1C(F)(F)F)N1CCc2[nH]cnc2[C@H]1c1nc2c(F)cccc2s1 [Example 1493, (S)-(4-(4-fluorobenzo[d]thiazol-2-yl)-6,7-dihydro-1H-imidazo[4,5-c]pyridin-5(4H)-yl)(4-(trifluoromethyl)oxazol-5-yl)methanone] and O=C(c1ocnc1C(F)(F)F)N1CCc2[nH]cnc2[C@@H]1c1nc2c(F)cccc2s1 [Example 1494, (R)-(4-(4-fluorobenzo[d]thiazol-2-yl)-6,7-dihydro-1H-imidazo[4,5-c]pyridin-5(4H)-yl)(4-(trifluoromethyl)oxazol-5-yl)methanone] cannot be ordered by AC50: less than 500 nM for the first, less than 500 nM for the second.

First: O=C(c1ocnc1C1CC1)N1CCc2[nH]cnc2[C@H]1c1nc2c(F)cccc2s1 [Example 1495]
Second: O=C(c1ocnc1C1CC1)N1CCc2[nH]cnc2[C@@H]1c1nc2c(F)cccc2s1 [Example 1496, (R)-(4-cyclopropyloxazol-5-yl)(4-(4-fluorobenzo[d]thiazol-2-yl)-6,7-dihydro-1H-imidazo[4,5-c]pyridin-5(4H)-yl)methanone]
The AC50 of the first is lower: less than 500 nM for the first, 1000 to 5000 nM for the second.

First: Cc1nc(C(C)(C)F)oc1C(=O)N1CCc2[nH]cnc2[C@H]1c1nc2ccccc2s1 [Example 1497]
Second: Cc1nc(C(C)(C)F)oc1C(=O)N1CCc2[nH]cnc2[C@@H]1c1nc2ccccc2s1 [Example 1498, (R)-(4-(benzo[d]thiazol-2-yl)-6,7-dihydro-1H-imidazo[4,5-c]pyridin-5(4H)-yl)(2-(2-fluoropropan-2-yl)-4-methyloxazol-5-yl)methanone]
The AC50 of the first is lower: less than 500 nM for the first, 1000 to 5000 nM for the second.

Compared with Cc1nc(C(C)(C)F)oc1C(=O)N1CCc2[nH]cnc2[C@H]1c1nc2c(F)cccc2s1 [Example 1499, (S)-(4-(4-fluorobenzo[d]thiazol-2-yl)-6,7-dihydro-1H-imidazo[4,5-c]pyridin-5(4H)-yl)(2-(2-fluoropropan-2-yl)-4-methyloxazol-5-yl)methanone], Cc1nc(C(C)(C)F)oc1C(=O)N1CCc2[nH]cnc2[C@@H]1c1nc2c(F)cccc2s1 [Example 1500, (R)-(4-(4-fluorobenzo[d]thiazol-2-yl)-6,7-dihydro-1H-imidazo[4,5-c]pyridin-5(4H)-yl)(2-(2-fluoropropan-2-yl)-4-methyloxazol-5-yl)methanone] is higher in AC50: less than 500 nM for the first, 500 to 1000 nM for the second.

First: CC(C)(O)c1ccc2c(C(=O)N3CCc4[nH]cnc4[C@H]3c3nc4c(F)cccc4s3)cnn2c1 [Example 1501, (S)-(4-(4-fluorobenzo[d]thiazol-2-yl)-6,7-dihydro-1H-imidazo[4,5-c]pyridin-5(4H)-yl)(6-(2-hydroxypropan-2-yl)pyrazolo[1,5-a]pyridin-3-yl)methanone]
Second: CC(C)(O)c1ccc2c(C(=O)N3CCc4[nH]cnc4[C@@H]3c3nc4c(F)cccc4s3)cnn2c1 [Example 1502, (R)-(4-(4-fluorobenzo[d]thiazol-2-yl)-6,7-dihydro-1H-imidazo[4,5-c]pyridin-5(4H)-yl)(6-(2-hydroxypropan-2-yl)pyrazolo[1,5-a]pyridin-3-yl)methanone]
The AC50 of the first is lower: less than 500 nM for the first, 1000 to 5000 nM for the second.

O=C(c1cnc(-c2c(F)cccc2F)s1)N1CCc2[nH]cnc2[C@@H]1c1nc2c(F)cccc2s1 [Example 1503, (R)-(2-(2,6-difluorophenyl)thiazol-5-yl)(4-(4-fluorobenzo[d]thiazol-2-yl)-6,7-dihydro-1H-imidazo[4,5-c]pyridin-5(4H)-yl)methanone] and O=C(c1cnc(-c2c(F)cccc2F)s1)N1CCc2[nH]cnc2[C@H]1c1nc2c(F)cccc2s1 [Example 1504] cannot be ordered by AC50: less than 500 nM for the first, less than 500 nM for the second.

Compared with Cc1nc(-c2cnn(CC(F)(F)F)c2)oc1C(=O)N1CCc2[nH]cnc2[C@@H]1c1nc2c(F)cccc2s1 [Example 1505, (R)-(4-(4-fluorobenzo[d]thiazol-2-yl)-6,7-dihydro-1H-imidazo[4,5-c]pyridin-5(4H)-yl)(4-methyl-2-(1-(2,2,2-trifluoroethyl)-1H-pyrazol-4-yl)oxazol-5-yl)methanone], Cc1nc(-c2cnn(CC(F)(F)F)c2)oc1C(=O)N1CCc2[nH]cnc2[C@H]1c1nc2c(F)cccc2s1 [Example 1506, (S)-(4-(4-fluorobenzo[d]thiazol-2-yl)-6,7-dihydro-1H-imidazo[4,5-c]pyridin-5(4H)-yl)(4-methyl-2-(1-(2,2,2-trifluoroethyl)-1H-pyrazol-4-yl)oxazol-5-yl)methanone] is lower in AC50: 1000 to 5000 nM for the first, less than 500 nM for the second.

CC(C)(O)c1nnc(C(=O)N2CCc3[nH]cnc3[C@@H]2c2nc3ccccc3s2)o1 [Example 1507, (R)-(4-(benzo[d]thiazol-2-yl)-6,7-dihydro-1H-imidazo[4,5-c]pyridin-5(4H)-yl)(5-(2-hydroxypropan-2-yl)-1,3,4-oxadiazol-2-yl)methanone] and CC(C)(O)c1nnc(C(=O)N2CCc3[nH]cnc3[C@H]2c2nc3ccccc3s2)o1 [Example 1508] fall in the same range of AC50: 1000 to 5000 nM for the first, 1000 to 5000 nM for the second.

O=C(c1cnc(-c2c(F)cccc2F)s1)N1CCc2[nH]cnc2[C@H]1c1nc2ccccc2s1 [Example 1509] and O=C(c1cnc(-c2c(F)cccc2F)s1)N1CCc2[nH]cnc2[C@@H]1c1nc2ccccc2s1 [Example 1510, (R)-(4-(benzo[d]thiazol-2-yl)-6,7-dihydro-1H-imidazo[4,5-c]pyridin-5(4H)-yl)(2-(2,6-difluorophenyl)thiazol-5-yl)methanone] cannot be ordered by AC50: less than 500 nM for the first, less than 500 nM for the second.

First: CC(F)(F)c1ncc(C(=O)N2CCc3[nH]cnc3[C@H]2c2nc3ccccc3s2)s1 [Example 1511]
Second: CC(F)(F)c1ncc(C(=O)N2CCc3[nH]cnc3[C@@H]2c2nc3ccccc3s2)s1 [Example 1512, (R)-(4-(benzo[d]thiazol-2-yl)-6,7-dihydro-1H-imidazo[4,5-c]pyridin-5(4H)-yl)(2-(1,1-difluoroethyl)thiazol-5-yl)methanone]
The AC50 of the first is lower: less than 500 nM for the first, 1000 to 5000 nM for the second.

CC(F)(F)c1ncc(C(=O)N2CCc3[nH]cnc3[C@@H]2c2nc3c(F)cccc3s2)s1 [Example 1514, (R)-(2-(1,1-difluoroethyl)thiazol-5-yl)(4-(4-fluorobenzo[d]thiazol-2-yl)-6,7-dihydro-1H-imidazo[4,5-c]pyridin-5(4H)-yl)methanone] and Cn1cc(-c2nc(C3CC3)c(C(=O)N3CCc4[nH]cnc4[C@@H]3c3nc4ccccc4s3)o2)cn1 [Example 1517, (R)-(4-(benzo[d]thiazol-2-yl)-6,7-dihydro-1H-imidazo[4,5-c]pyridin-5(4H)-yl)(4-cyclopropyl-2-(1-methyl-1H-pyrazol-4-yl)oxazol-5-yl)methanone] fall in the same range of AC50: 1000 to 5000 nM for the first, 1000 to 5000 nM for the second.

Going from O=C(c1oc(-c2ccccn2)nc1C1CC1)N1CCc2[nH]cnc2[C@H]1c1nc2ccccc2s1 [Example 1515] to O=C(c1oc(-c2ccccn2)nc1C1CC1)N1CCc2[nH]cnc2[C@@H]1c1nc2ccccc2s1 [Example 1516, (R)-(4-(benzo[d]thiazol-2-yl)-6,7-dihydro-1H-imidazo[4,5-c]pyridin-5(4H)-yl)(4-cyclopropyl-2-(pyridin-2-yl)oxazol-5-yl)methanone], the AC50 rises from less than 500 nM to greater than 5000 nM.

With Cn1cc(-c2nc(C3CC3)c(C(=O)N3CCc4[nH]cnc4[C@H]3c3nc4ccccc4s3)o2)cn1 [Example 1518] the AC50 was less than 500 nM.
